This assay deals with NMDA receptors. Nature of the assay: NMDA receptor blockade with MK-801 before intermittent photostimulation of ChR2 animals, diaphragmatic EMG. The class given is in vivo, Sprague Dawley rats. The source says:
Four days after C2 hemisection and/or virus injection, the animals were anesthetized as above and prepared for light treatment and physiological recordings. In a room where all light was eliminated except for that needed to accomplish the surgical procedures, approximately an eight cm incision was made at the base of the ribcage to expose the abdominal surface of the diaphragm. Bipolar electrodes, connected to an amplifier and data acquisition set-up (CED 1401/Spike2 Data Analysis Computer Interface, Cambridge Electronic Design), were inserted into both left and right hemidiaphragms to record diaphragmatic activity. After this, the cervical area of the spinal cord was reopened again for exposure to photostimulation at a wavelength of 475 nm, i.e., blue light. The light source was a portable unit capable of producing light at various wavelengths through a fiber optic cable (Model Lambda DG-4, Sutter Instrument). Diaphragmatic motor activity was recorded before, during, and after stimulation. During recording, the animals were placed on a circulating warm water blanket to maintain body temperature. The initial protocol used for photostimulation included sustained exposure (1 min) of the C3-C6 spinal cord from the light source, as well as, intermittent exposure to light at about once per second for 1 min. […] This protocol was adapted from the long-term facilitation induction protocol of 5 min normoxia followed by 5 min hypoxia (Fuller et al., 2003; Golder and Mitchell, 2005). The intermittent stimulation consisted of light exposure at 0.5 Hz, with each flash of light 1 s long.
To block NMDA receptors, 500 μl of 10 μM MK-801 (Sigma), a noncompetitive NMDA receptor antagonist, diluted in PBS, was applied to the exposed spinal cord. MK-801 was administered after 5 min of baseline recording. Recording with MK-801 continued for 5 more minutes before intermittent photostimulation and thereafter as described above.
After recording, the raw diaphragmatic EMG signal was rectified and integrated using Spike2 software. Frequency was determined by counting total breaths for 5 min before and after photostimulation. Peak amplitude and burst duration of inspiratory bursts were measured through Spike2, for at least 25 breaths before and after stimulation. Poststimulation analyses of ChR2 animals were made during regular patterned respiratory related diaphragmatic EMG activity. All values were standardized to prestimulation measures. Statistical analysis was performed using ANOVA and Tukey's post hoc analysis. All values with a p value <0.05 were considered significant. All error bars indicate SEs.

“Also recorded” adds a separate entry of the source.

`C[C@]12N[C@H](Cc3ccccc31)c1ccccc12` [MK-801]: the “effect on light-induced change in diaphragmatic EMG activity” value (500 μl of 10 μM MK-801 in PBS on exposed C3-C6 spinal cord, ipsilateral and contralateral) is given as “failed to elicit any kind of change in diaphragmatic EMG activity; also recorded: eliminated cycling of increasing diaphragmatic EMG activity”. Also, the “animals in which intermittent photostimulation failed to elicit any change in EMG activity” value (500 μl of 10 μM MK-801 on exposed C3-C6 spinal cord) is on record as “four of six”. Under “FIG. 4A”, the “frequency of breaths before and after stimulation” value is on record as “no change”. Moreover, where the note is “FIG. 4B, brought back to control levels”, the “effect on photostimulation-induced increase of peak EMG amplitude during inspiratory bursts” value was “abolished”. The “effect on photostimulation-induced increase in duration of EMG inspiratory bursts” value (FIG. 4C, brought back to control levels) was “attenuated”.

The values are drawn from patent US20110112463A1, “COMPOSITIONS AND METHODS FOR TREATING A NEURONAL INJURY OR NEURONAL DISORDERS” (priority 2009, published 2011).
